Assay results from PubChem BioAssay (NCI).
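48-hour exposure; five concentrations; linearly interpolated endpoints. TGI marks complete inhibition of growth.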

How the values were obtained:
Assay in all cases: NCI anticancer screen, dose series, 48 h
[1] = tested on: CAKI-1 renal
[2] = tested on: SF-539 CNS
[3] = tested on: SF-268 CNS
[4] = tested on: HCT-15 colon
[5] = tested on: 786-0 renal
[6] = tested on: SK-MEL-2 melanoma
[7] = tested on: EKVX NSCLC
[8] = tested on: K-562 leukemia
[9] = tested on: SNB-75 CNS
[10] = tested on: SW-620 colon
[11] = tested on: NCI-H23 lung
[12] = tested on: MCF7 breast
[13] = tested on: KM12 colon
[14] = tested on: NCI-H460 lung
[15] = tested on: OVCAR-5 ovarian
[16] = tested on: SNB-19 CNS
[17] = tested on: SN12C renal
[18] = tested on: NCI-H522 lung
[19] = tested on: RXF 393 renal
[20] = tested on: ACHN renal
[21] = tested on: MDA-MB-435
[22] = tested on: NCI/ADR-RES ovarian
[23] = tested on: UO-31 renal
[24] = tested on: HT29 colon
[25] = tested on: CCRF-CEM leukemia
[26] = tested on: MALME-3M melanoma
[27] = tested on: HS 578T breast
[28] = tested on: SK-OV-3 ovarian
[29] = tested on: SK-MEL-5 melanoma
[30] = tested on: HCC-2998 colon
[31] = tested on: HOP-62 NSCLC
[32] = tested on: UACC-62 melanoma
[33] = tested on: LOX IMVI melanoma
[34] = tested on: HL-60(TB) leukemia
[35] = tested on: OVCAR-4 ovarian
[36] = tested on: OVCAR-8 ovarian
[37] = tested on: COLO 205 colon
[38] = tested on: TK-10 renal
[39] = tested on: PC-3 prostate
[40] = tested on: SR leukemia
[41] = tested on: MDA-N
[42] = tested on: A549 NSCLC
[43] = tested on: BT-549 breast
[44] = tested on: T-47D breast
[45] = tested on: MDA-MB-231 breast
[46] = tested on: HCT-116 colon
[47] = tested on: M14 melanoma
[48] = tested on: OVCAR-3 ovarian
[49] = tested on: DU-145 prostate
[50] = tested on: IGROV1 ovarian
[51] = tested on: UACC-257 melanoma
[52] = tested on: MOLT-4 leukemia
[53] = tested on: SF-295 CNS
[54] = tested on: SK-MEL-28 melanoma
[55] = tested on: U251 CNS
[56] = tested on: A498 renal
[57] = tested on: NCI-H226 lung
[58] = tested on: RPMI-8226 leukemia

SMILES: Fc1ccc(Oc2nc3ccc(C(F)(F)F)cc3nc2-c2ccccc2)cc1
- TGI [1]: 70.8 µM
- TGI [2]: > 100 µM
- TGI [3]: > 100 µM
- TGI [4]: > 100 µM
- TGI [5]: > 100 µM
- TGI [6]: > 100 µM
- TGI [7]: > 100 µM
- TGI [8]: > 10 µM
- TGI [9]: > 100 µM
- TGI [10]: > 10 µM
- TGI [11]: > 100 µM
- TGI [12]: > 100 µM
- TGI [13]: > 100 µM
- TGI [14]: > 100 µM
- TGI [15]: > 100 µM
- TGI [16]: > 100 µM
- TGI [17]: > 100 µM
- TGI [18]: > 100 µM
- TGI [19]: > 100 µM
- TGI [20]: > 100 µM
- TGI [21]: > 100 µM
- TGI [22]: > 100 µM
- TGI [23]: > 100 µM
- TGI [24]: > 100 µM
- TGI [25]: > 10 µM
- TGI [26]: > 100 µM
- TGI [27]: 99.5 µM
- TGI [28]: > 100 µM
- TGI [29]: > 100 µM
- TGI [30]: 35.5 µM
- TGI [31]: > 100 µM
- TGI [32]: > 100 µM
- TGI [33]: > 100 µM
- TGI [34]: > 100 µM
- TGI [35]: > 100 µM
- TGI [36]: > 100 µM
- TGI [37]: > 100 µM
- TGI [38]: > 100 µM
- TGI [39]: > 100 µM
- TGI [40]: 70.9 µM
- TGI [41]: > 100 µM
- TGI [42]: > 100 µM
- TGI [43]: > 100 µM
- TGI [44]: > 100 µM
- TGI [45]: > 100 µM
- TGI [46]: > 100 µM
- TGI [47]: > 100 µM
- TGI [48]: > 100 µM
- TGI [49]: > 100 µM
- TGI [50]: > 100 µM
- TGI [51]: > 100 µM
- TGI [52]: > 100 µM
- TGI [53]: > 100 µM

SMILES: O=[N+]([O-])C(=C(Nc1ccccc1)Nc1ccccc1)/C(Cl)=C(\Cl)[N+](=O)[O-]
- TGI [1]: 3.18 µM
- TGI [2]: 4.15 µM
- TGI [54]: 16.3 µM
- TGI [3]: 14.6 µM
- TGI [4]: 12.3 µM
- TGI [5]: 15 µM
- TGI [6]: 31.8 µM
- TGI [7]: 19.5 µM
- TGI [8]: > 100 µM
- TGI [9]: 22.4 µM
- TGI [10]: 5.6 µM
- TGI [55]: 18.1 µM
- TGI [11]: 11.2 µM
- TGI [12]: 20.3 µM
- TGI [13]: 14.8 µM
- TGI [14]: 53.7 µM
- TGI [15]: 22.7 µM
- TGI [16]: 26.8 µM
- TGI [17]: 7.77 µM
- TGI [19]: 6.13 µM
- TGI [20]: 7.12 µM
- TGI [21]: 10.5 µM
- TGI [22]: 38.5 µM
- TGI [23]: 8.21 µM
- TGI [24]: 8.73 µM
- TGI [25]: 92.5 µM
- TGI [26]: 14.2 µM
- TGI [27]: 8.74 µM
- TGI [56]: 46.2 µM
- TGI [57]: 34.5 µM
- TGI [28]: > 100 µM
- TGI [29]: 5.05 µM
- TGI [30]: 28.9 µM
- TGI [31]: 26.4 µM
- TGI [32]: 18.7 µM
- TGI [33]: 11.4 µM
- TGI [35]: 17.6 µM
- TGI [36]: 2.77 µM
- TGI [37]: 7.08 µM
- TGI [38]: 16.9 µM
- TGI [39]: 20.9 µM
- TGI [40]: > 100 µM
- TGI [41]: 10.5 µM
- TGI [42]: 35.6 µM
- TGI [43]: 13.7 µM
- TGI [58]: 19.2 µM
- TGI [44]: 7.43 µM
- TGI [45]: 10.8 µM
- TGI [46]: 10.7 µM
- TGI [47]: 16.8 µM
- TGI [48]: 12 µM
- TGI [49]: 8.92 µM
- TGI [51]: 19.7 µM
- TGI [52]: 17.7 µM
- TGI [53]: 26.1 µM
